Laboratory results from ChEMBL document CHEMBL1125047, “Novel glutamic acid derived cholecystokinin receptor ligands” (J Med Chem, 1990).

Molecular target: T1, Cholecystokinin receptor type A (Rattus norvegicus, UniProt P30551)
T1 sequence (P30551 whole entry): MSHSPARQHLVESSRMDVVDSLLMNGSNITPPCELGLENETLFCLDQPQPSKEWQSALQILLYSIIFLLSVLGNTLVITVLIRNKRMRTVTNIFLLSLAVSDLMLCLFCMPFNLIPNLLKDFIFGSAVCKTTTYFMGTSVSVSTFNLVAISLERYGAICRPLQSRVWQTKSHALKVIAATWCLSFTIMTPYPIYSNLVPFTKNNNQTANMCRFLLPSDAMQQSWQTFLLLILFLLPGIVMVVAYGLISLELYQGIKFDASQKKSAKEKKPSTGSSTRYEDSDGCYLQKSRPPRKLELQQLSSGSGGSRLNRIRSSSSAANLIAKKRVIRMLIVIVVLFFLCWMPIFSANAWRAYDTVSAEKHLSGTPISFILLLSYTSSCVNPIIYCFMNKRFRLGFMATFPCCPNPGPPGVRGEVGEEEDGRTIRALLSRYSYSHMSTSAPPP
Assay: Inhibition of binding of [125I]- CCK-33 to rat pancreas

Compound | IC50
CCCCCN(CCCCC)C(=O)C(CCC(=O)OCc1ccccc1)NC(=O)Nc1ccc(Cl)cc1 (stereo not given) | 9300 nM
CCCCCN(CCCCC)C(=O)C(CCC(=O)N1CCCC1)NC(=O)Nc1ccc(Cl)cc1 (stereo not given) | 680 nM
O=C(O)CCC(NC(=O)c1cc2ccccc2[nH]1)C(=O)N(C1CCCCC1)C1CCCCC1 (single isomer, unassigned) | 59 nM
CCCCCN(CCCCC)C(=O)C(CCC(=O)O)NC(=O)c1ccc(Cl)c(Cl)c1 (stereo not given) [LORGLUMIDE] | 18 nM
CCCN(CCC)C(=O)C(CCC(=O)O)NC(=O)c1ccccc1 (stereo not given) [PROGLUMIDE] | 250000 nM

Results, then the molecule that gave them:

IC50 | Compound
1200 nM | CCCCCN(CCCCC)C(=O)C(CCC(=O)OCC)NC(=O)Nc1ccc(Cl)cc1 (stereo not given)
540 nM | CCCCCN(CCCCC)C(=O)C(CCC(=O)O)NC(=O)Nc1cccc(OC)c1 (single isomer, unassigned; 13)
4.5 nM | CCCCCN(CCCCC)C(=O)C(CCC(=O)O)NC(=O)Nc1cccc(OC)c1 (single isomer, unassigned; 14)
170 nM | CCCCCN(CCCCC)C(=O)C(CCC(=O)N1CCCC1)NC(=O)Nc1cccc(OC)c1 (single isomer, unassigned; 15)
120 nM | CCCCCN(CCCCC)C(=O)C(CCC(=O)N1CCCC1)NC(=O)Nc1cccc(OC)c1 (single isomer, unassigned; 16)
